Reference: PubChem BioAssay (NCI)
Where “and” joins values, the source holds several entries; their conditions need not be identical. Identical values can stand only once.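 Values below derive from 48-hour exposures of cells grown in 96-well plates, with endpoints linearly interpolated between the two concentrations bracketing the appropriate inhibition level. GI50 = concentration required for 50% inhibition of growth. At the TGI there is no net growth.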

Legend:
Test in all cases: DTP human tumour cell line panel, 48 h
A549 NSCLC = system: A549 NSCLC
HCT-15 colon = system: HCT-15 colon
SK-MEL-28 melanoma = system: SK-MEL-28 melanoma
SK-MEL-5 melanoma = system: SK-MEL-5 melanoma
SK-OV-3 ovarian = system: SK-OV-3 ovarian
SNB-75 CNS = system: SNB-75 CNS
UACC-257 melanoma = system: UACC-257 melanoma
SF-295 CNS = system: SF-295 CNS
BT-549 breast = system: BT-549 breast
MDA-MB-435 = system: MDA-MB-435

SMILES | GI50 (A549 NSCLC) | TGI (A549 NSCLC) | GI50 (HCT-15 colon) | TGI (HCT-15 colon) | GI50 (SK-MEL-28 melanoma) | TGI (SK-MEL-28 melanoma) | GI50 (SK-MEL-5 melanoma) | TGI (SK-MEL-5 melanoma) | GI50 (SK-OV-3 ovarian) | TGI (SK-OV-3 ovarian) | GI50 (SNB-75 CNS) | TGI (SNB-75 CNS) | GI50 (UACC-257 melanoma) | TGI (UACC-257 melanoma) | GI50 (SF-295 CNS) | TGI (SF-295 CNS) | TGI (BT-549 breast) | TGI (MDA-MB-435) | GI50 (BT-549 breast) | GI50 (MDA-MB-435)
[Co].[O-]c1cccnc1C=Nc1ccccc1.[OH3+] | > 100 µM | > 100 µM | 50.4 µM | > 100 µM | 82.6 µM | > 100 µM | > 100 µM | > 100 µM | > 100 µM | > 100 µM | 49.7 µM | > 100 µM | > 100 µM | > 100 µM |  |  |  |  |  | 
CCC[CH2][Sn]1([CH2]CCC)[O]CC[S]1 | 2.21 µM | 6.03 µM | 0.799 µM | 2.25 µM | 0.238 µM | 0.898 µM | 0.324 µM | 1.15 µM | 1.61 µM | 2.96 µM | 0.61 µM | 1.92 µM | 0.679 µM | 2.04 µM | 1.42 µM | 2.76 µM |  |  |  | 
CO/C=C(\Br)c1ccc2c(c1)OCO2 |  | > 100 µM |  |  |  | > 100 µM |  |  |  | > 100 µM |  | > 100 µM |  | > 100 µM |  | > 100 µM |  |  |  | 
COc1c(C)c(OC)c(C(=O)CC(C)C)c(OC)c1C |  | > 100 µM |  | > 100 µM |  | > 100 µM |  | > 100 µM |  | > 100 µM |  |  |  | > 100 µM |  | > 100 µM | > 100 µM | > 100 µM |  | 
COc1ccc(C2=NN(C(C)=O)C(c3ccc(Oc4ccnc5cc(Cl)ccc45)c(OC)c3)C2)cc1 (stereo unspecified) |  |  | > 100 µM | > 100 µM |  |  | > 100 µM | > 100 µM | 6.01 µM | 42.9 µM | 1.66 µM | 6.16 µM |  |  | 5.02 µM | 37.2 µM | > 100 µM | > 100 µM | 4 µM | > 100 µM
CC(=O)[CH-]C(C)=O.CC(=O)[CH-]C(C)=O.[Cl-].[O]=[V] | 36.3 µM | > 100 µM | 36.8 µM | > 100 µM | 25.7 µM | > 100 µM | 28.4 µM | 70.6 µM |  |  | 8.51 µM | 25.2 µM |  |  | 12.1 µM | 44.8 µM |  |  |  | 
Cc1c[nH]c(=O)n(Cc2nnc(CCC(=O)c3nc4ccccc4[nH]3)o2)c1=O | 0.475 µM | > 100 µM | 8.93 µM | > 100 µM | 0.533 µM | > 100 µM | 0.33 µM | 67.7 µM | 0.46 µM | 13.2 µM | 0.0558 µM | 0.806 µM | 0.787 µM | > 100 µM | 0.728 µM | 9.48 µM | 48.7 µM |  | 0.717 µM | 
CCn1c(SCC(=O)Nc2cc(C(F)(F)F)ccc2Cl)nc2ccccc2c1=O |  |  | 8.46 µM | > 100 µM | 53.9 µM | > 100 µM | 25.1 µM | > 100 µM | 14.6 µM | 30.9 µM | 17.1 µM | 53.8 µM |  |  | 71.9 µM | > 100 µM | > 100 µM | > 100 µM | 35 µM | > 100 µM
Cc1nc2ccccc2c(/C=C/c2ccccc2)c1C(=O)/C=C/c1ccc(C(F)(F)F)cc1 | 2.03 µM | 4.84 µM | 0.721 µM | 3.28 µM | 1.74 µM | 3.27 µM | 1.73 µM | 3.13 µM |  |  | 1.44 µM | 2.82 µM | 1.96 µM | 4.25 µM | 1.67 µM | 3.1 µM | 2.89 µM | 3.55 µM | 1.25 µM | 1.86 µM
COc1ccc(-c2oc3c(OC)c(OC)c(OC)c(O)c3c(=O)c2OC)cc1O | < 0.01 µM | 12.3 µM |  |  |  | > 100 µM | < 0.01 µM | 0.995 µM | < 0.01 µM | 0.783 µM and 0.419 µM | < 0.01 µM | < 0.01 µM | < 0.01 µM | > 100 µM |  | 21.2 µM |  |  |  | 
C/C(=C\C(C[C@](C)(O)C(O)CCC#C[Si](C)(C)C)S(=O)(=O)c1ccccc1)CC/C=C/CO[Si](C)(C)C(C)(C)C (stereo partly specified) |  | 30.2 µM |  | 34.4 µM |  |  |  | 28.1 µM |  | 40.3 µM |  |  |  | 32.5 µM |  | 31.1 µM |  |  |  | 
O=C(CC1(O)C(=O)Nc2ccccc21)c1ccc(Cl)cc1Cl (stereo unspecified) |  | > 100 µM |  | > 100 µM |  | > 100 µM |  | > 100 µM |  | > 100 µM |  | > 100 µM |  | > 100 µM |  | > 100 µM |  |  |  | 
COc1ccc2c(c1)C(=O)c1c-2c(N2CCN(C(=O)CCNCCNCCN)CC2)nc2ccccc12 | 9.51 µM | 29.4 µM |  |  | 2.04 µM | 3.66 µM | 17.6 µM | 36.6 µM | 14.6 µM | 30.6 µM | 27.8 µM | 51.6 µM | 3.24 µM | 9.33 µM | 20.8 µM | 44.7 µM |  | 30 µM |  | 6.86 µM
O=C(c1ccccc1)C1OC1C(=O)c1ccccc1 (stereo unspecified) | 4.17 µM | 39.2 µM | 2.61 µM | 12.2 µM | 4.28 µM | 44.5 µM | 3.46 µM | 14.3 µM | 7.98 µM | > 100 µM |  |  | 5.75 µM | 29.6 µM | 5.03 µM | 37.3 µM | 14.2 µM | > 100 µM | 3.28 µM | 2.86 µM
N#CC1(N2CCCC2)CCC2(CC1)OCCO2 |  | > 100 µM |  | > 100 µM |  | > 100 µM |  | > 100 µM |  | > 100 µM |  | > 100 µM |  | > 100 µM |  | > 100 µM |  |  |  | 
COc1cc2c(/C=C3/C(=O)Nc4ccc(O)cc43)c(Cl)n(Cc3cc(OC)c(OC)c(OC)c3)c2cc1C | 3.45 µM | > 100 µM | 1.81 µM | > 34.1 µM | 0.878 µM | 5.94 µM | 1.02 µM | 2.71 µM | 4.06 µM | > 75 µM | 1.61 µM | > 59.8 µM | 3.43 µM | > 47.6 µM | 0.795 µM | 5.67 µM |  |  |  | 0.328 µM
CN(C)CCN(C)C(=O)c1cccc2cccc(C(=O)O)c12 |  | > 100 µM |  | > 100 µM |  | > 100 µM |  | > 100 µM |  | > 100 µM |  | > 100 µM |  | > 100 µM |  | > 100 µM |  |  |  | 
